Data set [1] has as its system Calu-6 transplanted tumor nude mice. The experiment in a line: Toxicity in Calu-6 cell transplanted tumor mouse model. Conditions: Calu-6 cell transplanted tumor model, oral daily; Compound 16 50, 100, 200 mg/kg; Comparative Compound 1 100 mg/kg.
Data set [2] relates to human acute leukemia cell NB4 (expressing KRAS-A18D mutant kinase). As to the kind of experiment: Effect on proliferation of cancer cells, Cell Titer-Glo, 72 hours. The class given is cell-based. Conditions: NB-4. As for the experimental part: (§1) The compounds of the present invention were tested for their effect on growth of cancer cells (Table 2), to further evaluate the compounds herein for their inhibitory effect on proliferation of cancer cells and their selectivity in inhibiting proliferation of cancer cells.
(§2) The above-mentioned BaF3-FL-BRAF-V600E mutant cell line was constructed by the method as follows. The sequence of human full-length BRAF-V600E mutant kinase region was amplified by PCR, inserted into a MSCV-Puro vector (purchased from Clontech), and stably transfected into mouse BaF3 cells by the retroviral method, and the growth factor IL-3 was removed. Eventually, a cell line dependent on a full-length BRAF-V600E protein having various mutation transferred was obtained.
(§3) In the example, solutions of the test compound in DMSO at different concentrations (0.000508 μM, 0.00152 μM, 0.00457 μM, 0.0137 μM, 0.0411 μM, 0.123 μM, 0.370 μM, 1.11 μM, 3.33 μM, 10 μM) was added to the above cells respectively. The cells were incubated for 72 hours. The number of viable cells was detected with a Cell Titer-Glo (Promega, USA) Cell Viability Assay Kit by quantifying the ATP in viable cells. The values of GI50 (unit) of the compounds of the present invention against each of the test cells were determined.
On the technique in general: In ATP-based viability assays light output follows the ATP content of the culture.

The subject of data set [3] is human acute leukemia cell OCI-AML-3 (expressing NRAS-Q61L mutant kinase). The data set is described as above. The class given is cell-based. Conditions: OCI-AML-3 cells. On the procedure: as §1, §2, §3

The GI50 is the concentration at which growth is held to half of that of the control.

`Cc1ccc(NC(=O)c2cccc(C(F)(F)F)c2)cc1-n1cc(-c2cccnc2)cn1` [compound 1, 3-trifluoromethyl-N-(4-methyl-3-(4-(pyrid-3-yl)-1H-pyrazol-1-yl)phenyl)benzamide, reference compound]: the toxicity entry in data set [1] is recorded as “very strong toxicity as all mice died on Day 8”. The GI50 came to 83 nM in data set [2] and 20 nM in data set [3].

`Cc1ccc(NC(=O)c2cccc(C(F)(F)F)c2)cc1-n1cc(-c2cncc(N3CCOCC3)c2)cn1` [Example 16, N-(4-methyl-3-(4-(5-morpholinopyrid-3-yl)-1H-pyrazol-1-yl)phenyl)-3-(trifluoromethyl)benzamide]: the toxicity entry in data set [1] is listed as “did not exhibit any toxicity”. Besides, the 50% growth inhibitory concentration (GI50) was 27 nM in data set [2] and 21 nM in data set [3].
